Ki and IC50 data for five molecules are collected here from ChEMBL document CHEMBL5214923, “Contemporary mTOR inhibitor scaffolds to diseases breakdown: A patent review (2015-2021)” (Eur J Med Chem, 2022).

Test [1] concerns the target Peptidyl-prolyl cis-trans isomerase FKBP1A (Homo sapiens, UniProt P62942). Briefly: Binding affinity to FKBP12 (unknown origin) assessed as inhibition constant.
A further test deals with DU-145. Briefly: Antitumor activity against human DU-145 cells assessed as cell growth inhibition. Format: functional, cell-based.
The target in the next test is mTORC1 (Homo sapiens, UniProt P42345+Q8N122+Q9BVC4). Briefly: Inhibition of mTORC1 in human Jurkat cells assessed as inhibition of S6K phosphorylation incubated for 4 hrs by Western blot analysis. The class given is cell-based. Background: In western blotting, separated proteins are transferred to a membrane and probed.
For a further test, the system named is PC-3. Briefly: Antitumor activity against human PC-3 cells assessed as cell growth inhibition. Format: functional, cell-based.
For another test, the system named is SF-268. Briefly: Antitumor activity against human SF-268 cells assessed as cell growth inhibition. The class given is functional, cell-based.
Test [2] can be described thus: Antitumor activity against human U-87 MG cells assessed as cell growth inhibition. The class given is functional, cell-based, U-87MG ATCC.
The target of test [3] is T1, Phosphatidylinositol 4,5-bisphosphate 3-kinase catalytic subunit alpha isoform (Homo sapiens, UniProt P42336). Briefly: Inhibition of PI3Kalpha (unknown origin).
Test [4] addresses Phosphatidylinositol 4,5-bisphosphate 3-kinase catalytic subunit gamma isoform (Homo sapiens, UniProt P48736). Briefly: Inhibition of PI3Kgamma (unknown origin) by TR-FRET assay. On the technique in general: Time-resolved FRET reads energy transfer from a long-lived donor to a nearby acceptor.
In test [5] the target is Phosphatidylinositol 4,5-bisphosphate 3-kinase catalytic subunit beta isoform (Homo sapiens, UniProt P42338). Briefly: Inhibition of PI3Kbeta (unknown origin) by TR-FRET assay.
For test [6], the target named is Serine/threonine-protein kinase mTOR (Homo sapiens, UniProt P42345). Briefly: Inhibition of recombinant mTOR (unknown origin) using GFP-4E-BP1 as substrate preincubated for 15 mins followed by substrate addition measured after 1 hr by TR-FRET assay.
Test [7] has as its target PI3-kinase p110-alpha/p85-alpha (Homo sapiens, UniProt P42336). Briefly: Inhibition of PI3K p110alpha/p85alpha (unknown origin) using PIP2 as substrate preincubated for 15 mins followed by substrate addition measured after 1 hr in presence of ATP by TR-FRET assay. The class given is protein-complex assay.
Test [8] has as its target T2, Phosphatidylinositol 4,5-bisphosphate 3-kinase catalytic subunit delta isoform (Homo sapiens, UniProt O00329).
T2 sequence (O00329 whole entry): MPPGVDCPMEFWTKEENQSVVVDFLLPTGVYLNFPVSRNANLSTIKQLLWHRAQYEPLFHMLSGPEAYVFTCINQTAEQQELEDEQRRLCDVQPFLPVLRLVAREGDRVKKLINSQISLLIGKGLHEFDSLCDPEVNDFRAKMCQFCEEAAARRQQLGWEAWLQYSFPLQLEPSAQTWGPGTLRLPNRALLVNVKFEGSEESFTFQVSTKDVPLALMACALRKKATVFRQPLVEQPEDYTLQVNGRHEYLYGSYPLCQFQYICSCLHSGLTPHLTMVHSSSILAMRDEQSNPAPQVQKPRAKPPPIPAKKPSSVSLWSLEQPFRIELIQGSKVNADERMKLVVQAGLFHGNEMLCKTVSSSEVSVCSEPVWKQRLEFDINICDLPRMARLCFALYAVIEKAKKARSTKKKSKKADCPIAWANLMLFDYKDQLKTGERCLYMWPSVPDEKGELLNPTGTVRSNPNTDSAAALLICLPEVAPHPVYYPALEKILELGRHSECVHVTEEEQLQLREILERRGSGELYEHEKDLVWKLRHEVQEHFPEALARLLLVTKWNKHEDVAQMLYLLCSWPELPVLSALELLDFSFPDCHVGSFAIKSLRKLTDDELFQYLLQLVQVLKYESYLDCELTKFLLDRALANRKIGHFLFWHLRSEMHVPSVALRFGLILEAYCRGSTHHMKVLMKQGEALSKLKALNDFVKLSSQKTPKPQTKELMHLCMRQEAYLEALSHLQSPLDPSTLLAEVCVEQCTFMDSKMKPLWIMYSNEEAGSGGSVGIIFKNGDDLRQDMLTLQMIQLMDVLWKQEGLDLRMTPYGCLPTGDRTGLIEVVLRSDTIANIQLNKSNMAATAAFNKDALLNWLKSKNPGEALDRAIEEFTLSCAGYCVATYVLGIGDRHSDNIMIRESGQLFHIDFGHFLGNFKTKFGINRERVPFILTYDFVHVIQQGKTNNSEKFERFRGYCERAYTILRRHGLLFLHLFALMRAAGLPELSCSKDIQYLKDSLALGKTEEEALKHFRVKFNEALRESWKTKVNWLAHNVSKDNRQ
Briefly: Inhibition of PI3Kdelta (unknown origin) by TR-FRET assay.

For test [9], the target named is T1, Phosphatidylinositol 4,5-bisphosphate 3-kinase catalytic subunit alpha isoform. Briefly: Inhibition of PI3Kalpha (unknown origin) by TR-FRET assay.

For orientation: Ki means the dissociation constant of the complex between target and ligand, obtained from inhibition or displacement. Usually IC50 stands for the concentration needed to halve the response being measured.

T1 sequence (P42336 whole entry, canonical isoform): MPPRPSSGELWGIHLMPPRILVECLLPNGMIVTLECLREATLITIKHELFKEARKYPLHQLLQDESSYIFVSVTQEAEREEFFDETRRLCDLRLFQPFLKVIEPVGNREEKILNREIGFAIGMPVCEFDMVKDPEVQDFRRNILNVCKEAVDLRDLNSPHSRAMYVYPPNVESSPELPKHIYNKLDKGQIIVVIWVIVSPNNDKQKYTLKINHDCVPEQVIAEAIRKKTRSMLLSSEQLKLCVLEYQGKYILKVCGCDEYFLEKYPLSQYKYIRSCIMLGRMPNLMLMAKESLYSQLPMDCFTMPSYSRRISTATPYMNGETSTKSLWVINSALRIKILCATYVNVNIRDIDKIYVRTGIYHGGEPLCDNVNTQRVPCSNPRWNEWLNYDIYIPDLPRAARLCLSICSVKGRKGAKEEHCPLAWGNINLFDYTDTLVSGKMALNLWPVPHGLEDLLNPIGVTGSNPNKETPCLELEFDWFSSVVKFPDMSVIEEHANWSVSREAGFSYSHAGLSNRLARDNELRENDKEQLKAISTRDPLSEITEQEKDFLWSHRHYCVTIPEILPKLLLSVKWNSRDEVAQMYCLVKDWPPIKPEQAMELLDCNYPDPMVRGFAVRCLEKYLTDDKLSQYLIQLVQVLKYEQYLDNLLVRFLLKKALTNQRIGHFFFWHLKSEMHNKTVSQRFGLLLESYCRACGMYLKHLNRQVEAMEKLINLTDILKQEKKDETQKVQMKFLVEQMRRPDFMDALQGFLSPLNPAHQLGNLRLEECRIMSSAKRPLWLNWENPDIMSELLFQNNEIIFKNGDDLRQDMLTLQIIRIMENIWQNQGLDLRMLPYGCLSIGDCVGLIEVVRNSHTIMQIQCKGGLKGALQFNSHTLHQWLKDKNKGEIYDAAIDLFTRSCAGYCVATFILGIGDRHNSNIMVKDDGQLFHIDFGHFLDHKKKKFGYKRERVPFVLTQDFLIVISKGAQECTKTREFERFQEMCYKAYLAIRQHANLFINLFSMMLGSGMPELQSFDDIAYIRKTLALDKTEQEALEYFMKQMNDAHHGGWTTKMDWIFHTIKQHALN
Sequence of Phosphatidylinositol 4,5-bisphosphate 3-kinase catalytic subunit beta isoform (P42338 whole entry, canonical isoform): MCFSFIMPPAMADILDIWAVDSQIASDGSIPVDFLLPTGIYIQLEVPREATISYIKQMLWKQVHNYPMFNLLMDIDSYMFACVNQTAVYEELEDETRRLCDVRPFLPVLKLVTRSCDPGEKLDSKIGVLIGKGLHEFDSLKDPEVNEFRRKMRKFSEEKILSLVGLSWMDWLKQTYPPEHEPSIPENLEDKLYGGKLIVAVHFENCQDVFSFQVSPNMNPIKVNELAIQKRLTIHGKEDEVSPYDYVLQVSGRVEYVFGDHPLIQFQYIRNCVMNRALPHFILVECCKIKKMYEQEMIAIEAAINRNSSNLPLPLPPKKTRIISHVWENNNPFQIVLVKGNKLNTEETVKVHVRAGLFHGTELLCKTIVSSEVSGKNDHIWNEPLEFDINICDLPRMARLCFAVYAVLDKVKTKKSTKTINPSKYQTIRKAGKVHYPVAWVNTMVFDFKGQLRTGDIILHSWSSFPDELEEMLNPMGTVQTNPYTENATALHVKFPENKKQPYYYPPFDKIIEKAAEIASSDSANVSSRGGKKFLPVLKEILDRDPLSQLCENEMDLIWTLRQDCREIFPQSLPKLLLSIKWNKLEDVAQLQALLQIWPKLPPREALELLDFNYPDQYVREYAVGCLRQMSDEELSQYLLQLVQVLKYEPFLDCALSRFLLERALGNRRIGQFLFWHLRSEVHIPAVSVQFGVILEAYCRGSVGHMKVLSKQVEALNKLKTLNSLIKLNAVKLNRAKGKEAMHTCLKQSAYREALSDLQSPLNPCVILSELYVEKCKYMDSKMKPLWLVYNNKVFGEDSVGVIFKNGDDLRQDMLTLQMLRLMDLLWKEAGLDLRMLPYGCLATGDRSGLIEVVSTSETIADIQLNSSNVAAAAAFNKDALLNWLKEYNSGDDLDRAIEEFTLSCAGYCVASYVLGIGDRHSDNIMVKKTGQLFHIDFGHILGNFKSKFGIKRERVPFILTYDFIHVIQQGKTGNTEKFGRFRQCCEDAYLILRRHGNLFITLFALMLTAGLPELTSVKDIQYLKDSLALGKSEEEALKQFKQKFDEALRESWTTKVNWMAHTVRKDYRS
Sequence of Phosphatidylinositol 4,5-bisphosphate 3-kinase catalytic subunit gamma isoform (P48736 whole entry, canonical isoform): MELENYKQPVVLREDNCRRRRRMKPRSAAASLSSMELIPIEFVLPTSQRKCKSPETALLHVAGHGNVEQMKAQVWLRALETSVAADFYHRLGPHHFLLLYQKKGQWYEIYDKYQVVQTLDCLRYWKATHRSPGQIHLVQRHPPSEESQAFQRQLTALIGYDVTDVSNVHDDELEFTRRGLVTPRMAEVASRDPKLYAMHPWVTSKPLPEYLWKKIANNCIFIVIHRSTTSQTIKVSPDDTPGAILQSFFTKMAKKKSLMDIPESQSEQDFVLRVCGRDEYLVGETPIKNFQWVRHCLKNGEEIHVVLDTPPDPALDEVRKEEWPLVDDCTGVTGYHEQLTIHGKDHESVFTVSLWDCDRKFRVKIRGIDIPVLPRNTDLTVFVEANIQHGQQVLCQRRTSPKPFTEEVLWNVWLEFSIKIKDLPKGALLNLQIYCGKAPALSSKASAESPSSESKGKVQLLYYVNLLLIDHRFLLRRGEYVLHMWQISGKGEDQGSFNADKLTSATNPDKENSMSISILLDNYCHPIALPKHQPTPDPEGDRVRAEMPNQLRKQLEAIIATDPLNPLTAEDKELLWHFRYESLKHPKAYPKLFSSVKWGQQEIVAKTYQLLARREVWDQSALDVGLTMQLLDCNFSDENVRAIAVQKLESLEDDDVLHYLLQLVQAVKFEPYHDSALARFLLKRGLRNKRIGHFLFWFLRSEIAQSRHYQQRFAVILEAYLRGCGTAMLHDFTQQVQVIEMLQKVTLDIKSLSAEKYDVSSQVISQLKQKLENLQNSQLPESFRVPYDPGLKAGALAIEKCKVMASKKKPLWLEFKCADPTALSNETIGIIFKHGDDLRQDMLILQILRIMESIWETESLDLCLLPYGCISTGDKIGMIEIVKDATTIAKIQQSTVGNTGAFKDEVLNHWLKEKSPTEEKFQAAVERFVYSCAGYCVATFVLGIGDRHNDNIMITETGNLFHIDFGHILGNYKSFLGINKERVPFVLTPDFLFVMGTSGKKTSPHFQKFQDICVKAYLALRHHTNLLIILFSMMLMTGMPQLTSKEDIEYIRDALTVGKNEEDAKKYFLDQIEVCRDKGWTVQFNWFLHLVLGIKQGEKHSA
Sequence of Peptidyl-prolyl cis-trans isomerase FKBP1A (P62942 whole entry): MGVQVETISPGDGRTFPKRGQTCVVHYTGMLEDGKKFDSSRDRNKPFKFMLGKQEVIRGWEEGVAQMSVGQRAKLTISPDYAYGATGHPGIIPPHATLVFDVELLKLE
Sequence of PI3-kinase p110-alpha/p85-alpha (P27986 whole entry, canonical isoform): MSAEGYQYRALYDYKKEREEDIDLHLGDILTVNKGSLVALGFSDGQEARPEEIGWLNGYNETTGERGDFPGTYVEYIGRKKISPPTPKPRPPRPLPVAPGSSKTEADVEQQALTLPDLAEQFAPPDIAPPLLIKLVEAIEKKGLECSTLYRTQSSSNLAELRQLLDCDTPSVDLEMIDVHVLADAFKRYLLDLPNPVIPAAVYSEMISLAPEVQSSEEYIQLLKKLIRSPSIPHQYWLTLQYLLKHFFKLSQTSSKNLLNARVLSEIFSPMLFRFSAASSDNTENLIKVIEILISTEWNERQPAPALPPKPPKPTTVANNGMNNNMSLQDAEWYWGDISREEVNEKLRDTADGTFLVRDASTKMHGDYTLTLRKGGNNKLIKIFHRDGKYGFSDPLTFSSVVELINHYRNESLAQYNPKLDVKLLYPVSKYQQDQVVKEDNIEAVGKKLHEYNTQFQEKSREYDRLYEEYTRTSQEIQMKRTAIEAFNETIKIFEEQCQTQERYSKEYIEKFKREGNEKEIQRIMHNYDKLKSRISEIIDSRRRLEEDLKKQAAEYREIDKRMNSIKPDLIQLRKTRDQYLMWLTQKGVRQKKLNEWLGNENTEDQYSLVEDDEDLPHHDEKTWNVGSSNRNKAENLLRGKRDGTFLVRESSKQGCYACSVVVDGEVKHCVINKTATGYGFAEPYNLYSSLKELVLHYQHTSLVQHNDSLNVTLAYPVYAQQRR
Sequence of PI3-kinase p110-alpha/p85-alpha (P42336 whole entry, canonical isoform): as the sequence (P42336 whole entry, canonical isoform) above

In the case of `CO[C@@H]1C[C@@H]2CC[C@@H](C)[C@@](O)(O2)C(=O)C(=O)N2CCCC[C@H]2C(=O)OC([C@H](C)C[C@@H]2C[C@@H]3C[C@H]2C[C@H]3O)CC(=O)[C@H](C)/C=C(\C)[C@@H](O)[C@@H](OC)C(=O)[C@H](C)C[C@H](C)/C=C/C=C/C=C/1C` (stereo not given in full), the Ki in test [1] was 3.9 nM. Further, the IC50 in the test on DU-145 was found to be 2.7 nM; on mTORC1 it was 0.1 nM; in the test on PC-3, 2.5 nM; in the test on SF-268, 0.19 nM; in [2], 2.2 nM.
As to `CC(C)(O)c1ccc(-c2cnc3c(n2)N(CC2CCOCC2)CC(=O)N3)cn1`, the IC50 in [3] is above 30000 nM.
For the molecule `O=S(=O)(Nc1cc(-c2ccc3ncc(N4CCNCC4)nc3c2)cnc1Cl)c1ccc(F)cc1`, the IC50 in test [4] turned out to be 5.14 nM; in test [5], 4.77 nM.
Consider `CN(C)C(=O)C1CCC(Oc2nc(-c3ccc(N)nc3)nc(N3CCOCC3)n2)CC1` (stereo not given), for which the IC50 in test [6] and in test [7] was below 1000 nM each time.
For `NOCCOCCOCCOCCC(=O)N1CCN(c2cnc3ccc(-c4cnc(Cl)c(NS(=O)(=O)c5ccc(F)cc5)c4)cc3n2)CC1`, the IC50 in [4] is 1.33 nM; in [8], below 0.495 nM; in [5], 30.2 nM; in test [9] it was below 4.95 nM.
